Data: patent US20260083865A1, “PROSTATE SPECIFIC MEMBRANE ANTIGEN (PSMA) LIGANDS AND USE THEREOF” (priority 2022, published 2026)
Read-outs that look alike come from different tables or passages of the source. Numbered stars: 1 amine (or outer) side, 2 acyl side, 3 side chain; on linkers, the order of the positions; unused ones are H or OH. Bridge positions count the residues as written; N and C are the ends. Square brackets hold non-standard residues; d marks the D form. Peptide text beside a SMILES is read from it. * marks the point of attachment. ξ: configuration not given here. TtdsdLys(DOTA)NH2 = NC(=O)[C@@H](CCCCNC(=O)CN1CCN(CC(=O)O)CCN(CC(=O)O)CCN(CC(=O)O)CC1)NC(=O)CCC(=O)NCCCOCCOCCOCCCN*; DOTA = O=C(O)CN1CCN(CC(=O)O)CCN(CC(=O)*)CCN(CC(=O)O)CC1; Ala(quinolin-3-yl) = N[C@@H](Cc1cnc2ccccc2c1)C(=O)O; X13 = C/N=C(/NC)N(C)CCC[C@H](N[*:1])C(=O)[*:2]; Phe(3-Cl) = N[C@@H](Cc1cccc(Cl)c1)C(=O)O; Phe(4-Cl) = N[C@@H](Cc1ccc(Cl)cc1)C(=O)O; Arg(Me) = CNC(=N)NCCC[C@H](N)C(=O)O; NMeT = CN[C@H](C(=O)O)[C@@H](C)O; 4Pal = N[C@@H](Cc1ccncc1)C(=O)O; X1 = O=C(CC1CCN([*:1])CC1)[*:2]; Cit = NC(=O)NCCC[C@H](N)C(=O)O; Lys(Me) = CNCCCC[C@H](N)C(=O)O; Tle = CC(C)(C)[C@H](N)C(=O)O; Hexanoyl = CCCCCC(=O)*; Aib = CC(C)(N)C(=O)O; ξP = O=C(O)C1CCCN1

Experiments:
[1] = target: T1, PSMA-expressing C4-2 cells (Homo sapiens, UniProt Q04609); assay: FACS binding assay (competition with 50 nM PSM-0183); conditions: read-out: pIC50 [C4-2] CAT (converted)
T1 construct: PSMA-expressing C4-2 cells (ATCC, Cat. No. CRL-3314) were cultured in RPMI-1640; host or cells: C4-2 cells
T1 sequence (Q04609 whole entry): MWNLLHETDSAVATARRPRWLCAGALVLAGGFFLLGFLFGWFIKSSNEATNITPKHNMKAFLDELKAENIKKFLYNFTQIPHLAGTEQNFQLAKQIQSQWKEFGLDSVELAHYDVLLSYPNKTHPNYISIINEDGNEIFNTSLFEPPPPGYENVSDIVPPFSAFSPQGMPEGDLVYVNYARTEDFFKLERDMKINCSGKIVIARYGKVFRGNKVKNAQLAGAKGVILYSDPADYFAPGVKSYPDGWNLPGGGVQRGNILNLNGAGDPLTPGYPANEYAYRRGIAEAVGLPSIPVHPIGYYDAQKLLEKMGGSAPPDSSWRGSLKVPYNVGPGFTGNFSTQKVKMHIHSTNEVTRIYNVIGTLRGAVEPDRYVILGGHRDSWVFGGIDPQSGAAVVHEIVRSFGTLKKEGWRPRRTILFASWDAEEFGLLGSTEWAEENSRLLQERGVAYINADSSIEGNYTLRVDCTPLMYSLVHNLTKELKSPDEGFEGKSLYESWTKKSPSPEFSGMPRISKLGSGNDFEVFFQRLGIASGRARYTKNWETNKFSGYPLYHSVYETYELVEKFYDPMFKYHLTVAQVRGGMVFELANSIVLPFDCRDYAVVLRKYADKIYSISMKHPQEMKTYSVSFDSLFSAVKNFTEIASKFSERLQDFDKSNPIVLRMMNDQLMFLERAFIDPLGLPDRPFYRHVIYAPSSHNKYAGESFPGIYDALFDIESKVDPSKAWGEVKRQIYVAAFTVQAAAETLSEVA
How it was run: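 C4-2 cells were incubated 1 h at 4 °C with 50 nM AF488-labelled peptide PSM-0183 plus increasing test compound concentrations, then washed twice in ice-cold buffer. Median fluorescence in the AF488 channel was read by flow cytometry. IC50/pIC50 was derived by 4PL fitting of MFI versus concentration.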

[2] = target: T2, Fc-fusion protein of human PSMA (hPSMA-Fc) (Homo sapiens, UniProt Q04609); assay: Surface plasmon resonance assay (Biacore T200, single cycle kinetic); assay type: binding; conditions: hPSMA-Fc, 25° C., read-out: pKD CAT (converted)
T2 construct: purchased Acro Biosystems PSA-H5264
T2 sequence (Q04609 44-750 limits assumed): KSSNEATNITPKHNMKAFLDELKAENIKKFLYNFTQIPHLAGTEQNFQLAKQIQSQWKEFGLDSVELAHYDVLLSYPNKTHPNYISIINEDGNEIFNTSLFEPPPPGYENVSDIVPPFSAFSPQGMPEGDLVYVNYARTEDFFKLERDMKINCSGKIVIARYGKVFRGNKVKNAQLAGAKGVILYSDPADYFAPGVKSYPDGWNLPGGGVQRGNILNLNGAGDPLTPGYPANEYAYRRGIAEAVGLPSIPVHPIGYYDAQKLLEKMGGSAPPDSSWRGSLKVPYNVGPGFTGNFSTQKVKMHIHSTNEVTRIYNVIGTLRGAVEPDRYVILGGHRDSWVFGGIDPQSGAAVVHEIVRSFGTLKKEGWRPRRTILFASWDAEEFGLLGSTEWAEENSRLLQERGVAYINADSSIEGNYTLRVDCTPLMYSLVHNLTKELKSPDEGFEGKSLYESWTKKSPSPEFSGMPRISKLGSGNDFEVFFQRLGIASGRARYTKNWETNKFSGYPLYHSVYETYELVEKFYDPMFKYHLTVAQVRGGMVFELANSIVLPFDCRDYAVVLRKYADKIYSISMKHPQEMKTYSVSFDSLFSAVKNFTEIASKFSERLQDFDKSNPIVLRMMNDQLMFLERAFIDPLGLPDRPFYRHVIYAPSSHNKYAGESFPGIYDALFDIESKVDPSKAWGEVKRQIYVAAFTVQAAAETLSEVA
How it was run: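 hPSMA-Fc was captured (~1000 RU) on an Fc-binding-peptide CM5 chip, and compounds were run in single cycle kinetic mode at 25° C in HBST with 0.1% DMSO. Double-blank-corrected sensorgrams were fitted to a 1:1 Langmuir model to give KD, reported as pKD.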

[3] = pIC50 category of FACS binding, C4-2 cells
[4] = pKD category for PSMA SPR activity assay
[5] = FACS binding, PSMA-expressing C4-2 cells, pIC50 category

CCCCCC(=O)N[C@H](C(=O)N[C@@H](C)C(=O)N[C@@H](Cc1ccccc1)C(=O)N[C@H]1CSSC[C@@H](C(=O)N[C@@H](CC(C)C)C(=O)N[C@H](C(=O)N[C@@H](CC(=O)O)C(=O)NCCCOCCOCCOCCCNC(=O)CCC(=O)N[C@H](CCCCNC(=O)CN2CCN(CC(=O)O)CCN(CC(=O)O)CCN(CC(=O)O)CC2)C(N)=O)[C@@H](C)O)NC(=O)[C@H](CC(N)=O)NC(=O)[C@H](C)NC(=O)[C@H](CCCNC(=N)N)NC(=O)[C@H](CCCCN)NC1=O)[C@@H](C)O [PSM-0405, Hex-Thr-Ala-Phe-[Cys-Lys-Arg-Ala-Asn-Cys]-Leu-Thr-Asp-Ttds-lys(DOTA)-NH2] (Hexanoyl-TAFCKRANCLTD-{TtdsdLys(DOTA)NH2}; disulfide 4-9)
IC50 [1, 3]: < 200 nM
Kd [2, 4]: 12.6 to 126 nM

C[C@@H](O)[C@H](NC(=O)[C@@H](NC(=O)[C@@H]1CSSC[C@H](NC(=O)[C@H](Cc2cnc3ccccc3c2)NC(=O)C(C)(C)NC(=O)[C@@H](NC(=O)CC2CCN(C(=O)CN3CCN(CC(=O)O)CCN(CC(=O)O)CCN(CC(=O)O)CC3)CC2)[C@@H](C)O)C(=O)N[C@@H](CCCCN)C(=O)N[C@@H](CCCNC(N)=O)C(=O)NC(C)(C)C(=O)N[C@@H](CC(N)=O)C(=O)N1)C(C)(C)C)C(N)=O [PSM-0333, DOTA-Cmp-Thr-Aib-2Qi-[Cys-Lys-Cit-Aib-Asn-Cys]-Tle-Thr-NH2] ({DOTA}-[X1]T[Aib][Ala(quinolin-3-yl)]CK[Cit][Aib]NC[Tle]T-NH2; disulfide 5-10)
IC50 [1, 5]: > 3160 nM
Kd ([2]; PSMA SPR assay, pKD category): > 501 nM

C[C@@H](O)[C@H](NC(=O)[C@@H](NC(=O)[C@@H]1CSSC[C@H](NC(=O)[C@H](Cc2ccncc2)NC(=O)C(C)(C)NC(=O)[C@@H](NC(=O)CC2CCN(C(=O)CN3CCN(CC(=O)O)CCN(CC(=O)O)CCN(CC(=O)O)CC3)CC2)[C@@H](C)O)C(=O)N[C@@H](CCCCN)C(=O)N[C@@H](CCCNC(=N)N)C(=O)NC(C)(C)C(=O)N[C@@H](CC(N)=O)C(=O)N1)C(C)(C)C)C(N)=O [PSM-0454, DOTA-Cmp-Thr-Aib-Ppa-[Cys-Lys-Cit-Aib-Asn-Cys]-Tle-Thr-NH2] ({DOTA}-[X1]T[Aib][4Pal]CKR[Aib]NC[Tle]T-NH2; disulfide 5-10)
IC50 [1, 3]: 1260 to 3160 nM
Kd [2, 4]: 126 to 501 nM

C/N=C(/NC)N(C)CCC[C@@H]1NC(=O)[C@H](CCCCNC)NC(=O)[C@@H](NC(=O)[C@H](Cc2ccc(Cl)cc2)NC(=O)C(C)(C)NC(=O)[C@@H](NC(=O)CC2CCN(C(=O)CN3CCN(CC(=O)O)CCN(CC(=O)O)CCN(CC(=O)O)CC3)CC2)[C@@H](C)O)CSSC[C@@H](C(=O)N[C@H](C(=O)N[C@H](C(N)=O)[C@@H](C)O)C(C)(C)C)NC(=O)[C@H](CC(N)=O)NC(=O)C(C)(C)NC1=O [PSM-0355, DOTA-Cmp-Thr-Aib-Pcf-[Cys-Lys(Me)-RMe3-Aib-Asn-Cys]-Tle-Thr-NH2] ({DOTA}-[X1]T[Aib][Phe(4-Cl)]C[Lys(Me)][X13][Aib]NC[Tle]T-NH2; disulfide 5-10)
IC50 [1, 5]: 200 to 1260 nM
Kd ([2]; PSMA SPR assay, pKD category): < 12.6 nM

CNCCCC[C@@H]1NC(=O)[C@@H](NC(=O)[C@H](Cc2cccc(Cl)c2)NC(=O)C(C)(C)NC(=O)[C@@H](NC(=O)CC2CCN(C(=O)CN3CCN(CC(=O)O)CCN(CC(=O)O)CCN(CC(=O)O)CC3)CC2)[C@@H](C)O)CSSC[C@@H](C(=O)N[C@H](C(N)=O)C(C)(C)C)NC(=O)[C@H](CC(N)=O)NC(=O)C(C)(C)NC(=O)[C@H](CCCNC(=N)NC)NC1=O [PSM-0354, DOTA-Cmp-Thr-Aib-Mcf-[Cys-Lys(Me)-Arg(Me)-Aib-Asn-Cys]-Tle-NH2] ({DOTA}-[X1]T[Aib][Phe(3-Cl)]C[Lys(Me)][Arg(Me)][Aib]NC[Tle]-NH2; disulfide 5-10)
IC50 [1, 5]: < 200 nM
Kd ([2]; PSMA SPR assay, pKD category): 12.6 to 126 nM

CC(=O)N[C@H](C(=O)NC(C)(C)C(=O)N[C@@H](Cc1ccccc1)C(=O)N[C@H]1CSSC[C@@H](C(=O)N[C@H](C(=O)N2CCCC2C(N)=O)C(C)(C)C)NC(=O)[C@H](CC(N)=O)NC(=O)C(C)(C)NC(=O)[C@H](CCCNC(=N)N)NC(=O)[C@H](CCCCN)NC1=O)[C@@H](C)O (stereo partly drawn) [PSM-0388, Ac-Thr-Aib-Phe-[Cys-Lys-Arg-Aib-Asn-Cys]-Tle-Pro-NH2] (Ac-T[Aib]FCKR[Aib]NC[Tle][ξP]-NH2; disulfide 4-9)
IC50 [1, 3]: < 200 nM
Kd [2, 4]: < 12.6 nM

C[C@H](NC(=O)[C@H]([C@@H](C)O)N(C)C(=O)CC1CCN(C(=O)CN2CCN(CC(=O)O)CCN(CC(=O)O)CCN(CC(=O)O)CC2)CC1)C(=O)N[C@@H](Cc1ccc(Cl)cc1)C(=O)N[C@H]1CSSC[C@@H](C(=O)N[C@H](C(=O)N[C@H](C(N)=O)[C@@H](C)O)C(C)(C)C)NC(=O)[C@H](CC(N)=O)NC(=O)C(C)(C)NC(=O)[C@H](CCCNC(=N)N)NC(=O)[C@H](CCCCN)NC1=O [PSM-0455, DOTA-Cmp-Nmt-Ala-Pcf-[Cys-Lys-Arg-Aib-Asn-Cys]-Tle-Thr-NH2] ({DOTA}-[X1][NMeT]A[Phe(4-Cl)]CKR[Aib]NC[Tle]T-NH2; disulfide 5-10)
IC50 [1, 3]: 200 to 1260 nM
Kd [2, 4]: 126 to 501 nM
